A value given as a limit tells only on which side of the number the result lay.

In series [1] the target is GLP-1R (Homo sapiens, UniProt P43220). Nature of the series: GLP-1R activation: cAMP increase in CHO cells stably expressing GLP-1R. It counts as cell-based. Conditions: cAMP increase, CHO cells stably expressing GLP-1R, 10 point dose response, 30 minutes incubation; read-out: EC50.
Series [2] in a line: Microsomal stability, human liver microsomes (predicted hepatic clearance). To be noted: predicted from in vitro microsomal stability data.

Sequence of GLP-1R (P43220 24-463): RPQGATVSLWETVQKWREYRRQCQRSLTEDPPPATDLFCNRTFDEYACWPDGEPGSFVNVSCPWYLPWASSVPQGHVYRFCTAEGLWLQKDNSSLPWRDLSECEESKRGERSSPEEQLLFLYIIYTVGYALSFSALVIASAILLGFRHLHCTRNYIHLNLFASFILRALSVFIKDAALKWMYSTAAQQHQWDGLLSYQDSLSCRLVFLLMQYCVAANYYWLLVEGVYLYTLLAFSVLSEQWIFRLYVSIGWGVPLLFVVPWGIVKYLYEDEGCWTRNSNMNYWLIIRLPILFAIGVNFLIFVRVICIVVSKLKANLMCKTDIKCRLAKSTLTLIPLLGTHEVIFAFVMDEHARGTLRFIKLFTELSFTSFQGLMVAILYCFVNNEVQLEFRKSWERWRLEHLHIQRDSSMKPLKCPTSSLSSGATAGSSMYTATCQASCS

Usually EC50 stands for the midpoint of the concentration-response curve. As to `COc1cc(C#N)ccc1COc1nccc(-c2cc(F)c(Cc3nc4c(F)cc(C(=O)O)cc4n3C[C@@H]3CCO3)cc2F)n1` [Example 398, (S)-2-(4-(2-((4-cyano-2-methoxybenzyl)oxy)pyrimidin-4-yl)-2,5-difluorobenzyl)-4-fluoro-1-(oxetan-2-ylmethyl)-1H-benzo[d]imidazole-6-carboxylic acid], the EC50 in series [1] was 0.1 nM. Also, in series [2], the “Predicted Hepatic Clearance (Pred. Cl.)” value is 10.2 mL/min/kg.
The matching figures for `COCCn1c(Cc2ccc(-c3cccc(OCc4ccc(C#N)cc4F)n3)cc2F)nc2ccc(P(=O)(O)O)cc21` [Example 555, (2-(4-(6-((4-cyano-2-fluorobenzyl)oxy)pyridin-2-yl)-2-fluorobenzyl)-1-(2-methoxyethyl)-1H-benzo[d]imidazol-6-yl)phosphonic acid]: 57.9 nM and 1.83 mL/min/kg.
For the compound `COCCn1c(Cc2ccc(-c3cccc(OCc4cccc(C#N)c4)n3)cc2F)nc2ccc(C(=O)O)cc21` [Example 497, 2-(4-(6-((3-cyanobenzyl)oxy)pyridin-2-yl)-2-fluorobenzyl)-1-(2-methoxyethyl)-1H-benzo[d]imidazole-6-carboxylic acid], the 50% effective concentration (EC50) in series [1] was 1350 nM. In series [2], the “Predicted Hepatic Clearance (Pred. Cl.)” value is 5.33 mL/min/kg.
Take `COCCn1c(Cc2cnn(-c3cccc(OCc4ccc(C#N)cc4F)n3)c2)nc2ccc(C(=O)O)cc21` [Example 107, 2-[[1-[6-[(4-cyano-2-fluoro-phenyl)methoxy]-2-pyridyl]pyrazol-4-yl]methyl]-3-(2-methoxyethyl)benzimidazole-5-carboxylic acid]: the EC50 in series [1] is 3640 nM. For the same compound, in series [2], the “Predicted Hepatic Clearance (Pred. Cl.)” value is 13.8 mL/min/kg.
The like results for `N#Cc1ccc(COc2nccc(-c3cc(F)c(Cc4nc5c(F)cc(C(=O)O)cc5n4Cc4ncco4)cc3F)n2)c(F)c1` [Example 617] were, in that order, 0.55 nM and 3.67 mL/min/kg.
In the case of `COCCCn1c(Cc2ccc(-c3cccc(OCc4ccc(C#N)cc4F)n3)cc2F)nc2ccc(C(=O)O)cc21` [Example 390, 2-(4-(6-((4-cyano-2-fluorobenzyl)oxy)pyridin-2-yl)-2-fluorobenzyl)-1-(3-methoxypropyl)-1H-benzo[d]imidazole-6-carboxylic acid], the 50% effective concentration (EC50) in series [1] came out at 26.4 nM. Further, the “Predicted Hepatic Clearance (Pred. Cl.)” value in series [2] was 7.5 mL/min/kg.
Consider `COCCn1c(C(C)c2ccc(-c3cccc(OCc4ccc(C#N)cc4F)n3)cc2)nc2ccc(C(=O)O)cc21` (single isomer, unassigned) [Example 418, 2-(1-(4-(6-((4-cyano-2-fluorobenzyl)oxy)pyridin-2-yl)phenyl)ethyl)-1-(2-methoxyethyl)-1H-benzo[d]imidazole-6-carboxylic acid], for which the EC50 in series [1] came out at 18.3 nM. The “Predicted Hepatic Clearance (Pred. Cl.)” value in series [2] is 4.83 mL/min/kg.
On to `N#CCC1(Cn2c(Cc3ccc(-c4cccc(OCc5ccc(C#N)cc5F)n4)cc3F)nc3ccc(C(=O)NS(=O)(=O)C4CC4)cc32)CC1` [Example 55, 2-(4-(6-((4-cyano-2-fluorobenzyl)oxy)pyridin-2-yl)-2-fluorobenzyl)-1-((1-(cyanomethyl)cyclopropyl)methyl)-N-(cyclopropylsulfonyl)-1H-benzo[d]imidazole-6-carboxamide], for which the EC50 in series [1] came out at 3.4 nM. In addition, the “Predicted Hepatic Clearance (Pred. Cl.)” value in series [2] was 4.33 mL/min/kg.
Take `COCCn1c(Cc2ccc(-c3cccc(OCc4ccc(C#N)cc4F)n3)s2)nc2ccc(C(=O)O)cc21` [Example 4, 2-((5-(6-((4-cyano-2-fluorobenzyl)oxy)pyridin-2-yl)thiophen-2-yl)methyl)-1-(2-methoxyethyl)-1H-benzo[d]imidazole-6-carboxylic acid]: the half-maximal effective concentration (EC50) in series [1] is 1570 nM. The “Predicted Hepatic Clearance (Pred. Cl.)” value in series [2] was 13.7 mL/min/kg.
The matching figures for `COCCn1c(Cc2c(F)cc(-c3cccnc3OCc3ccc(C#N)cc3F)cc2F)nc2ccc(C(=O)O)cc21` [Example 179, 2-(4-(2-((4-cyano-2-fluorobenzyl)oxy)pyridin-3-yl)-2,6-difluorobenzyl)-1-(2-methoxyethyl)-1H-benzo[d]imidazole-carboxylic acid]: 45.6 nM and 3.5 mL/min/kg.
With `COCCn1c(Cc2ccc(-c3ccccc3OCc3ccc(C#N)cc3F)cc2F)nc2ccc(C(=O)O)cc21` [Example 182, 2-((2′-((4-cyano-2-fluorobenzyl)oxy)-3-fluoro-[1,1′-biphenyl]-4-yl)methyl)-1-(2-methoxyethyl)-1H-benzo[d]imidazole-carboxylic acid], the EC50 in series [1] is 449 nM. For the same compound, the “Predicted Hepatic Clearance (Pred. Cl.)” value in series [2] is 7.67 mL/min/kg.
On to `N#Cc1ccc(COc2cccc(-c3ccc(Cc4nc5ccc(C(=O)O)cc5n4CC4(c5cccnc5)CC4)c(F)c3)n2)c(F)c1` [Example 292, 2-(4-(6-((4-cyano-2-fluorobenzyl)oxy)pyridin-2-yl)-2-fluorobenzyl)-1-((1-(pyridin-3-yl)cyclopropyl)methyl)-1H-benzo[d]imidazole-6-carboxylic acid], for which, in series [1], the EC50 was found to be 49.4 nM. Also, the “Predicted Hepatic Clearance (Pred. Cl.)” value in series [2] is 9.5 mL/min/kg.
For `COCCn1c(Cc2ccc(-c3cccc(OCc4ccccc4NC(=O)OC(C)(C)C)n3)cc2F)nc2ccc(C(=O)O)cc21` [Example 506, 2-(4-(6-((2-((tert-butoxycarbonyl)amino)benzyl)oxy)pyridin-2-yl)-2-fluorobenzyl)-1-(2-methoxyethyl)-1H-benzo[d]imidazole-6-carboxylic acid], in series [1], the half-maximal effective concentration (EC50) was 2180 nM. For the same compound, the “Predicted Hepatic Clearance (Pred. Cl.)” value in series [2] was 12.5 mL/min/kg.
In the case of `N#Cc1ccc(COc2cccc(-c3ccc(Cc4nc5ccc(C(=O)O)cc5n4CC4(CF)CC4)cc3F)n2)c(F)c1` [Example 521, 2-(4-(6-((4-cyano-2-fluorobenzyl)oxy)pyridin-2-yl)-3-fluorobenzyl)-1-((1-(fluoromethyl)cyclopropyl)methyl)-1H-benzo[d]imidazole-6-carboxylic acid], in series [1], the EC50 stood at 0.54 nM. For the same compound, the “Predicted Hepatic Clearance (Pred. Cl.)” value in series [2] is 6.75 mL/min/kg.
For `COCCn1c(Cc2ccc(-c3cccc(OCc4ccc(C#N)cc4OC(F)F)n3)cc2F)nc2ccc(C(=O)O)cc21` [Example 234, 2-(4-(6-((4-cyano-2-(difluoromethoxy)benzyl)oxy)pyridin-2-yl)-2-fluorobenzyl)-1-(2-methoxyethyl)-1H-benzo[d]imidazole-6-carboxylic acid], the half-maximal effective concentration (EC50) in series [1] stood at 6.95 nM. Further, the “Predicted Hepatic Clearance (Pred. Cl.)” value in series [2] is <1.83 mL/min/kg.
For `COCCn1c(Cc2ccc(-c3cccc(NCc4ccc(C#N)cc4F)n3)cc2F)nc2ccc(C(=O)O)cc21` [Example 170, 2-(4-(6-((4-cyano-2-fluorobenzyl)amino)pyridin-2-yl)-2-fluorobenzyl)-1-(2-methoxyethyl)-1H-benzo[d]imidazole-carboxylic acid], the EC50 in series [1] was determined as 509 nM. In series [2], the “Predicted Hepatic Clearance (Pred. Cl.)” value was 6.33 mL/min/kg.
In the case of `COCCn1c(Cc2ccc(-c3cccc(OCc4ccc(C5(F)COC5)cc4)n3)cc2F)nc2ccc(C(=O)O)cc21` [Example 460, 2-(2-fluoro-4-(6-((4-(3-fluorooxetan-3-yl)benzyl)oxy)pyridin-2-yl)benzyl)-1-(2-methoxyethyl)-1H-benzo[d]imidazole-6-carboxylic acid], the concentration giving a half-maximal response (EC50) in series [1] is 15.7 nM. The “Predicted Hepatic Clearance (Pred. Cl.)” value in series [2] was 12.5 mL/min/kg.
